Results reported in patent US20110092488A1, “Quninoline Methanol Compounds for the Treatment and Prevention of Parasitic Infections” (priority 2005, published 2011).
Read-outs that look alike come from different tables or passages of the source.

Columns and labels:
[1] = test system: primary rat forebrain neurons; assay: Neurocytotoxicity assay (MTT)
Description: The neurocytotoxicity assay of AAQMs was conducted as per Dow et al.; The antimalarial potential of 4-quinolinecarbinolamines may be limited due to neurotoxicity and cross-resistance in mefloquine-resistant Plasmodium falciparum strains; Chemother. (48) 2624-2632 (2004) and is incorporated herein, by reference. This assay utilizes primary rat forebrain neurons and is a multi-endpoint screen. […] The AAQMs outlined in Table 1 were screened at 10, 100 and 1000 μM in triplicate, and the reduction in viability observed was determined using the 3-(4,5-dimethylthiazol-2-yl)-2,5-diphenyltetrazolium bromide (MTT) assay as per Dow et al., discussed above. Approximate IC50 values were calculated on the basis of the level of inhibition observed at each concentration. Full dose response assays were run for mefloquine and WR069878 with two fold dilutions (n=6 wells per dilution) and 11 dilutions for each drug. IC50s were calculated using Prism. Each time the assay is conducted, 20 μM mefloquine is included, as a control. […] Assays are re-run if the loss of viability induced by mefloquine is <40% or >60%. Neuroprotection experiments with 6,7-dinitroquinoxaline-2,3-dione (DNQX) and magnesium were performed as per Dow et al.; Transcriptional profiling of mefloquine-induced disruption of calcium homeostasis in neurons in vitro; Genomics (86)539-550 (2005), which is incorporated by reference, herein. Neurons were exposed to DNQX (100 μM) or magnesium (12 mM) for 5 min, followed by mefloquine (25 μM) or WR069878 (250 μM) for 20 min after which reduction in cell viability was determined. […] DNQX is an inhibitor of non-N-methyl-D-aspartate (NMDA) receptors, whilst magnesium inhibits the functioning of the inositol 1,4,5-trisphosphate (IP3)-mediated calcium signaling pathway at several points. The effects of mefloquine and WR069878 on neuronal calcium homeostasis were assessed utilizing confocal microscopy as per Dow et al, as discussed in Antimicrob Agents Chemother. (48)2624-2632 (2004), cited above, and incorporated by reference, herein. Briefly neurons were loaded with calcium sensitive dye Fluo 3-A for 1 h and were washed prior to image experiments. Neurons were ‘spiked’ with 100 μM mefloquine or WR069878. Subsequent changes in neuronal calcium homeostasis were recorded as fluctuations in the emitted fluorescence of fluo-3-complexed calcium at 530 nm (excitation was 488 nm). Sequential image scans of fields containing 5-25 neurons were used to construct temporal profiles. Scans were made at 10 s intervals. Fluorescence levels for each neuron were normalized 12 to time zero values. Data were then pooled from three and five independent experiments for mefloquine and WR069878 respectively.

[2] = Aotus, 10 mg/kg/day oral x7
[3] = test system: Balb/c 3T3 mouse fibroblast cells; assay: 3T3 neutral red uptake (NRU) phototoxicity test; format: cell-based
Excerpt: A pharmacophore for phototoxicity was developed to be used as an in silico screening tool to determine the minimum phototoxic concentration for a number of AAQMS (WR069878 and those indicated in Table 5). Minimum phototoxic concentration in a yeast assay for a number of AAQMS, as per Ison et al.; Phototoxicity of Quinoline methanols and other drugs in mice and yeast; J. Invest. Dermatol. (52)193-198 (1969) were used to generate a three-dimensional pharmacophore model using the HypoGen algorithm of the […]® (Accelrys software Inc.) methodology as per Bhattacharjee et al.; A 3D QSAR pharmacophore model and quantum chemical structure—activity analysis of chloroquine(CQ)-resistance reversal; J. Chem Inf. Comput Sci. (42) 1212-1220 (2002), and Dow et al.; as discussed in Antimicrob Agents Chemother. (48)2624-2632 (2004), cited above, both Bhattacharjee et al. and Dow et al, incorporated herein, by reference. The structures of clinically used quinoline methanols were mapped onto the pharmacophores and estimated values for minimum phototoxic concentration were generated. The 3T3 neutral red uptake (NRU) phototoxicity test, conducted by MB Research Laboratories (Spinnerstown, Pa.), was used to identify quinoline methanols (WR069878 and those in Table 5) that have the potential to exert in vivo phototoxicity after systemic application. Briefly, the central 60 wells of two 96-well plates per AAQM were seeded with Balb/c 3T3 mouse fibroblast cells and maintained in culture for 24 hrs. These plates were then pre-incubated with a range of eight different concentrations of test compound (six wells per concentration) for one hour. Next, one plate was treated with a UVA dose of 5 J/cm2 by irradiating for 50 min at 1.7 mW/cm2, whereas the other plate remained non-treated and in the dark. Next, the treatment medium was replaced with culture medium and cell viability was determined after 24 hrs by measuring neutral red uptake for 3 hrs. Finally, the 3T3 NRU Phototox Prediction Software (version 2.0, ZEBET) was used to calculate EC50 values and Photo-Irritant Factors (PIF) for each compound. […]

## CCCCN(CCCC)CC(O)c1cc(-c2ccc(Cl)cc2)nc2cc(Cl)c(C)cc12 (centres unmarked) [WR069878]
[1]; read-out: Neurotoxicity IC50, full dose response, FIG. 2(a)
  IC50: 242 µM
[1]; read-out: Neurotoxicity ranking (IC50 in μM), approximate IC50 from screen at 10, 100 and 1000 μM, MTT
  IC50: 200 µM
[2]
  Mean peak concentration: 65 ng/mL
[2]; day 1, 2 h
  Plasma conc on day 1 (ng/ml) 2 h: 38 ng/mL
[2]; day 1, 24 h
  Plasma conc on day 1 (ng/ml) 24 h: 16 ng/mL
[2]; day 7, 2 h
  Plasma conc. on day 7 (ng/ml) 2 h: 91 ng/mL
[2]; day 7, 24 h
  Plasma conc. on day 7 (ng/ml) 24 h: 40 ng/mL
[3]
  Photo Irritant Factor (PIF): > 100
